In ChEMBL document CHEMBL5625205, “3-Methoxy-2-phenylimidazo[1,2-b]pyridazines highly active against Mycobacterium tuberculosis and Mycobacterium marinum” (Eur J Med Chem, 2023):
In brackets after ≈: the same amount, converted by molar mass. Activity calls are given as the source filed them. The calls are words filed in the database; no cut-off is given here.

What was measured:
[1] = test system: Mycobacterium tuberculosis; experiment: Antimycobacterial activity against Mycobacterium tuberculosis H37Ra assessed as inhibition of bacterial growth measured for 5 days by luminometer; type: functional; conditions: 120 h, time 5 day
Mycobacterium marinum = experiment: Antimycobacterial activity against Mycobacterium marinum assessed as inhibition of bacterial growth measured for 5 days by luminometer; type: functional; conditions: 120 h, time 5 day
[2] = test system: Mycobacterium tuberculosis; experiment: Antimycobacterial activity against Mycobacterium tuberculosis H37Ra infected in mouse assessed as reduction in relative light unit in lung at 30 to 300 mg/kg,po administrated once daily for 5 days; type: functional, organism-based; conditions: dose 30-300 mg/kg, time 5.0 day
[3] = test system: Mycobacterium tuberculosis; experiment: Antimycobacterial activity against Mycobacterium tuberculosis H37Ra infected in mouse assessed as reduction in relative light unit in lung at 10 mg/kg,po administrated once daily for 5 days; type: functional, organism-based; conditions: time 5.0 day
[4] = Metabolic stability in mouse liver microsomes assessed as half life incubated for 60 mins in presence of NADPH; type: ADME, Microsome
[5] = Kinetic solubility of compound in DMSO at pH 6.5 incubated for 30 mins by laser nephelometry; type: physicochemical; conditions: read-out: Kinetic_solubility
[6] = Metabolic stability in mouse liver microsomes assessed as intrinsic clearance incubated for 60 mins in presence of NADPH; type: ADME, Microsome; conditions: read-out: CLH
[7] = Octanol-water distribution coefficient, logD of the compound at pH 7.4 by HPLC analysis; type: physicochemical
[8] = Kinetic solubility of compound in DMSO at pH 2 incubated for 30 mins by laser nephelometry; type: physicochemical; conditions: read-out: Kinetic_solubility

Structure (SMILES)	MIC90 [1] [µM]	MIC90 (Mycobacterium marinum) [µM]	also measured
CN(Cc1ccccc1)c1ccc2nc(-c3ccc(F)cc3F)c(O)n2n1	273 (≈ 100 µg/mL)	> 273	
COc1cccc(COc2ccc3nc(-c4cccc(C(F)(F)F)c4)c(OC)n3n2)c1	> 230		
CN(Cc1ccccc1)c1ccc2nc(-c3ccccc3)c(O)n2n1	303 (≈ 100 µg/mL)	> 303	
COc1cccc(CS(=O)(=O)c2ccc3nc(-c4ccc(F)cc4)c(OC)n3n2)c1	234 (≈ 100 µg/mL)	234 (≈ 100 µg/mL)	
CCOc1c(-c2ccccc2)nc2ccc(SCc3cccc(OC)c3)nn12	2.55 (≈ 0.998 µg/mL)	1.28 (≈ 0.501 µg/mL)	
COc1c(-c2ccccc2)nc2ccc(SC)nn12	18.4 (≈ 4.99 µg/mL)	36.9 (≈ 10 µg/mL)	
COc1ccc(CSc2ccc3nc(-c4ccccc4)c(OC)n3n2)cc1	5.3 (≈ 2 µg/mL)	5.3 (≈ 2 µg/mL)	
COc1cccc(COc2ccc3nc(-c4ccc(F)cc4)c(OC)n3n2)c1	2.64 (≈ 1 µg/mL)	2.64 (≈ 1 µg/mL)	
COc1c(C)nc2ccc(Oc3ccccc3)nn12	> 117		
CCOc1c(-c2ccccc2F)nc2ccc(SCc3cccc(OC)c3)nn12	3.05 (≈ 1.25 µg/mL)	3.05 (≈ 1.25 µg/mL)	
COc1cccc(CSc2ccc3nc(-c4ccccc4F)c(OC)n3n2)c1	1.26 (≈ 0.498 µg/mL)	0.15 (≈ 0.0593 µg/mL)	Activity [2]: inactive
COc1c(-c2ccc(Br)cc2)nc2ccc(N(C)Cc3ccccc3)nn12	5.91 (≈ 2.5 µg/mL)	11.8 (≈ 5 µg/mL)	
COc1cccc(CNc2ccc3nc(-c4cccc([N+](=O)[O-])c4)c(OC)n3n2)c1	> 240	> 240	
COc1c(-c2ccccc2)nc2ccc(OCc3ccccc3)nn12	3.02 (≈ 1 µg/mL)	1.51 (≈ 0.5 µg/mL)	
COc1cccc(CSc2ccc3nc(-c4cccc([N+](=O)[O-])c4)c(OC)n3n2)c1	> 230	> 230	
CN(Cc1ccccc1)c1ccc2nc(-c3ccc(F)cc3)c(O)n2n1	144 (≈ 50.2 µg/mL)	144 (≈ 50.2 µg/mL)	
CN(Cc1ccccc1)c1ccc2nc(-c3ccc(C(F)(F)F)cc3)c(O)n2n1	> 251	251 (≈ 100 µg/mL)	
COc1cccc(COc2ccc3nc(-c4ccc(C(F)(F)F)cc4)c(OC)n3n2)c1	> 230	> 230	
COc1c(-c2ccc(F)cc2)nc2ccc(N(C)Cc3ccccc3)nn12	1.38 (≈ 0.5 µg/mL)	1.38 (≈ 0.5 µg/mL)	

Structure (SMILES)	MIC90 [1] [µM]	MIC90 (Mycobacterium marinum) [µM]	also measured
CN(C)Cc1c(-c2ccccc2)nc2ccc(SCc3ccccc3)nn12	6.68 (≈ 2.5 µg/mL)	13.4 (≈ 5.02 µg/mL)	
COc1c(-c2ccccc2)nc2ccc(SCc3ccccc3)nn12	1.44 (≈ 0.5 µg/mL)	0.72 (≈ 0.25 µg/mL)	
COc1c(-c2ccc(Cl)cc2)nc2ccc(N(C)Cc3ccccc3)nn12	6.6 (≈ 2.5 µg/mL)	6.6 (≈ 2.5 µg/mL)	
COc1cccc(CSc2ccc3nc(-c4ccc(F)cc4F)c(OC)n3n2)c1	15.1 (≈ 6.24 µg/mL)	1.21 (≈ 0.5 µg/mL)	
COc1cccc(CSc2ccc3nc(-c4ccc(OC)c(OC)c4)c(OC)n3n2)c1	> 220	> 220	
COc1cccc(CNc2ccc3nc(-c4ccc(F)cc4)c(OC)n3n2)c1	6.61 (≈ 2.5 µg/mL)	13.2 (≈ 4.99 µg/mL)	
COc1ccc(CSc2ccc3nc(-c4ccc(F)cc4)c(OC)n3n2)cc1	6.32 (≈ 2.5 µg/mL)	12.6 (≈ 4.98 µg/mL)	
CO[C@H]1/C=C/O[C@@]2(C)Oc3c(C)c(O)c4c(O)c(c(/C=N/N5CCN(C)CC5)c(O)c4c3C2=O)NC(=O)/C(C)=C\C=C\[C@H](C)[C@H](O)[C@@H](C)[C@@H](O)[C@@H](C)[C@H](OC(C)=O)[C@@H]1C [RIFAMPIN]	0.073 (≈ 0.0601 µg/mL)	0.24 (≈ 0.198 µg/mL)	Activity [3]: Active
COCCOc1c(-c2ccccc2)nc2ccc(SCc3ccccc3)nn12	255 (≈ 99.8 µg/mL)	63.9 (≈ 25 µg/mL)	
COc1cccc(CNc2ccc3nc(-c4ccccc4)c(OC)n3n2)c1	6.94 (≈ 2.5 µg/mL)	6.94 (≈ 2.5 µg/mL)	
COc1c(-c2ccc(C(F)(F)F)cc2)nc2ccc(N(C)Cc3ccccc3)nn12	6.06 (≈ 2.5 µg/mL)	12.1 (≈ 4.99 µg/mL)	
N#Cc1c(-c2ccccc2)nc2ccc(OCc3ccccc3)nn12	> 300	> 300	
CN(Cc1ccccc1)c1ccc2nc(-c3ccc(Br)cc3)c(O)n2n1	244 (≈ 99.9 µg/mL)	> 244	
COc1ccc(-c2nc3ccc(SCc4ccccc4)nn3c2OC)cc1	> 260		
COc1c(-c2ccccc2F)nc2ccc(N(C)Cc3ccccc3)nn12	0.69 (≈ 0.25 µg/mL)	0.69 (≈ 0.25 µg/mL)	half-life [4]: 4 min; solubility kinetic at 0.5 h [5]: < 1.6 µg/mL; Activity [2]: inactive; microsomal CLint [6]: 405 µL/min/mg; logD [7]: 4.5; solubility kinetic at 0.5 h [8]: 25 µg/mL (≈ 69 µM)
Cc1c(-c2ccccc2)nc2ccc(OCc3ccccc3)nn12	317 (≈ 100 µg/mL)	317 (≈ 100 µg/mL)	
COc1c(-c2cccc(N)c2)nc2ccc(N(C)Cc3ccccc3)nn12	34.8 (≈ 12.5 µg/mL)	13.9 (≈ 5 µg/mL)	
COc1c(-c2ccccc2)nc2ccc(SCc3nc4ccccc4n3C)nn12	24.9 (≈ 10 µg/mL)	250 (≈ 100 µg/mL)	
COc1cccc(CSc2ccc3nc(-c4ccc(F)cc4F)c(CN(C)C)n3n2)c1	227 (≈ 100 µg/mL)	227 (≈ 100 µg/mL)	
